Assay results taken from ChEMBL document CHEMBL5291721, “A preclinical secondary pharmacology resource illuminates target-adverse drug reaction associations of marketed drugs” (Nat Commun, 2023).

How the values were obtained:
[1] = biological target: T1, Type-1 angiotensin II receptor (Homo sapiens, UniProt P30556)
T1 sequence (P30556 whole entry): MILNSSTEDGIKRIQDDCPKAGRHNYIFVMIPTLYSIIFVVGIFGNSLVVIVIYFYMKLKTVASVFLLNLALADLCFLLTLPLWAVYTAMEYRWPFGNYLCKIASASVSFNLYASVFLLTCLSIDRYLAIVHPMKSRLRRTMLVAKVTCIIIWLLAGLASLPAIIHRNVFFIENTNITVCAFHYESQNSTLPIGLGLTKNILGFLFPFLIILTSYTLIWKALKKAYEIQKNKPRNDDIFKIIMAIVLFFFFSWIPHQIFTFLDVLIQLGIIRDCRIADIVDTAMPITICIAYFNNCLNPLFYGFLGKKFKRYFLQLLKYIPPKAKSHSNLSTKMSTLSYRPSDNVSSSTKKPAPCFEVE

[2] = biological target: T2, Alpha-2C adrenergic receptor (Homo sapiens, UniProt P18825); format: functional
T2 sequence (P18825 whole entry): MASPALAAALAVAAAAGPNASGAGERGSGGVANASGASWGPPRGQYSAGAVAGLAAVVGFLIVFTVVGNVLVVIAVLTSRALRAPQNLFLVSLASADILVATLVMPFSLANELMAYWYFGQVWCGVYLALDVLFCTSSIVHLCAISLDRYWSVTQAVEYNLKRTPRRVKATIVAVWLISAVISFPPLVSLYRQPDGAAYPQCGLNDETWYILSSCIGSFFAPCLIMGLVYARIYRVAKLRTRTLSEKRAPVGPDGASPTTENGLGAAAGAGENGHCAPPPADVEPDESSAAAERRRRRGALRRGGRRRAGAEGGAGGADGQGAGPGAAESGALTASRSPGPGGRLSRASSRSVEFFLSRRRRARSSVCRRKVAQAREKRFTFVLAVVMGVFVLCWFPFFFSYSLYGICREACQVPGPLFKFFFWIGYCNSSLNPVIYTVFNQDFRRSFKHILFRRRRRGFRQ

[3] = biological target: 5-hydroxytryptamine receptor 2B (Homo sapiens, UniProt P41595); format: functional, cell-based
Sequence of 5-hydroxytryptamine receptor 2B (P41595 whole entry): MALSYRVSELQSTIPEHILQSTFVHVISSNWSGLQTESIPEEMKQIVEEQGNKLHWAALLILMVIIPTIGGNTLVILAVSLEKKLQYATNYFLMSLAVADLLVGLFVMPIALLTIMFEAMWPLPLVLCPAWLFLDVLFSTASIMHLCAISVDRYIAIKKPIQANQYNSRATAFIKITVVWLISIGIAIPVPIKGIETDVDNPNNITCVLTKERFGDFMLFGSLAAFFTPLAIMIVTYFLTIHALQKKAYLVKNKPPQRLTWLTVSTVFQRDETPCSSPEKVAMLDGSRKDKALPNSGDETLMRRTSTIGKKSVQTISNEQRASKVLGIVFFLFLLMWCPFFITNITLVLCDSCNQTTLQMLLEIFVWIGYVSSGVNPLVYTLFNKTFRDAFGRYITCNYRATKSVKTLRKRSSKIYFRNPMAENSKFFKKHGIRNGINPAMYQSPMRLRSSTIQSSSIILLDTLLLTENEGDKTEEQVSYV

Melanocortin receptor 3 = Melanocortin receptor 3 (Homo sapiens, UniProt P41968)
Sequence of Melanocortin receptor 3 (P41968 whole entry): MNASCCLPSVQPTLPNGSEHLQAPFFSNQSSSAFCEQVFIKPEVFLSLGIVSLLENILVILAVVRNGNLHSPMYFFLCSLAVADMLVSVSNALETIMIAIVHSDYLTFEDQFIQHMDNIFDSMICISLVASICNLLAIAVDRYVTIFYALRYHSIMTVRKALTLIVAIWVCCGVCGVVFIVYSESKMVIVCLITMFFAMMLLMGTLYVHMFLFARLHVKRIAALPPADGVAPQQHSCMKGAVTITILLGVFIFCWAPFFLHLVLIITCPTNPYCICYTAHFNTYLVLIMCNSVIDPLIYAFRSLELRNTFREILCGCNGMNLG

[4] = biological target: cGMP-inhibited 3',5'-cyclic phosphodiesterase 3A (Homo sapiens, UniProt Q14432); format: functional
Sequence of cGMP-inhibited 3',5'-cyclic phosphodiesterase 3A (Q14432 whole entry): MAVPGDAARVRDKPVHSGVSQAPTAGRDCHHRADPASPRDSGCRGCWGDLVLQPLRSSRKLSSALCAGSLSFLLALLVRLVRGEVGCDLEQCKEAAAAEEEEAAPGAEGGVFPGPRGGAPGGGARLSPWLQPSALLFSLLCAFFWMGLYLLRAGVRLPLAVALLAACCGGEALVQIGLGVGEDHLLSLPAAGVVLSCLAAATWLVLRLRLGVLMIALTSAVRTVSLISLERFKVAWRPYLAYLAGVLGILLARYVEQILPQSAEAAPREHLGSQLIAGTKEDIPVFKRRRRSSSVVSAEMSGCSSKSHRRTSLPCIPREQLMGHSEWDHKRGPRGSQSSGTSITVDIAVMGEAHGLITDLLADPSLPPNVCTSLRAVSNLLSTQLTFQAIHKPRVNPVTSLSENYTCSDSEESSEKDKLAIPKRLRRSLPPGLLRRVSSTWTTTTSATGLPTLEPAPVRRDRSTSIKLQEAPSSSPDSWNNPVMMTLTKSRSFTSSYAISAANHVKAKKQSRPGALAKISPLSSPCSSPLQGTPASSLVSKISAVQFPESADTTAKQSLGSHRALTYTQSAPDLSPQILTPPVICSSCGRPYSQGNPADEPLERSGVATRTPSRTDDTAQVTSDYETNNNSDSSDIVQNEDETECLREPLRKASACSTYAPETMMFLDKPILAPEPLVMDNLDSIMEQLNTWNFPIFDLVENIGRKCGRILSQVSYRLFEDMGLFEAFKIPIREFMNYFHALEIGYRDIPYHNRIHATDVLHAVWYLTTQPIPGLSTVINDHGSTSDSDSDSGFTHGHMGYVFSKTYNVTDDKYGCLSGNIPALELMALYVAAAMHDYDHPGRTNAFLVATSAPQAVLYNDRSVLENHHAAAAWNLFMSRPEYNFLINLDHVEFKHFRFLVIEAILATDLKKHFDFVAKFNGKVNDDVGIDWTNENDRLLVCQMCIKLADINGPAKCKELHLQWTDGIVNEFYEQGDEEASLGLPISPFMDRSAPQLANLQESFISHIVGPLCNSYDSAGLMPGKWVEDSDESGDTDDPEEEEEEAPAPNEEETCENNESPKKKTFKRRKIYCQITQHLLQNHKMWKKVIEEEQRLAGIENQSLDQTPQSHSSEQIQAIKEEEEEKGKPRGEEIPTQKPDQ

Histamine H2 receptor = Histamine H2 receptor (Homo sapiens, UniProt P25021); format: functional, cell-based
Sequence of Histamine H2 receptor (P25021 whole entry): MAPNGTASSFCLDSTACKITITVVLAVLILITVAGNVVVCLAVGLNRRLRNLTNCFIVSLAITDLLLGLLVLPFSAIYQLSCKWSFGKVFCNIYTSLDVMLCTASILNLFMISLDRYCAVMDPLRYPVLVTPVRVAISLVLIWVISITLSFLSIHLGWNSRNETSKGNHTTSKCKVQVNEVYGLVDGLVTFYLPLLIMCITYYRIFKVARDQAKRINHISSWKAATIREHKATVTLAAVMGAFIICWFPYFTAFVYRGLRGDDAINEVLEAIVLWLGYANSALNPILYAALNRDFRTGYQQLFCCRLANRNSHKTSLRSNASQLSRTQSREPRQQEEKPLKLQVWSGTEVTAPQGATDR

[5] = biological target: T3, Neuropeptide Y receptor type 1 (Homo sapiens, UniProt P25929)
T3 sequence (P25929 whole entry): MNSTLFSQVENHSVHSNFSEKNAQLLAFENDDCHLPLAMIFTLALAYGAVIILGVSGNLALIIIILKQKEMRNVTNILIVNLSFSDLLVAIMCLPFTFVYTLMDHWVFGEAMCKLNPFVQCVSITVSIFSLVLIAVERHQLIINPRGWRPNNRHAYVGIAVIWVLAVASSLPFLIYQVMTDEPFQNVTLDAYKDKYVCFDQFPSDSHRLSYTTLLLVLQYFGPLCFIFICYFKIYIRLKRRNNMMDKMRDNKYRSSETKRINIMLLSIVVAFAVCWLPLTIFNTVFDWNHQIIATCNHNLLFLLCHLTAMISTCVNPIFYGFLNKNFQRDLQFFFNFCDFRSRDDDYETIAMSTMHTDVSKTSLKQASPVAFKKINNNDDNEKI

Glucocorticoid receptor = biological target: T4, Glucocorticoid receptor (Homo sapiens, UniProt P04150)
T4 sequence (P04150 whole entry): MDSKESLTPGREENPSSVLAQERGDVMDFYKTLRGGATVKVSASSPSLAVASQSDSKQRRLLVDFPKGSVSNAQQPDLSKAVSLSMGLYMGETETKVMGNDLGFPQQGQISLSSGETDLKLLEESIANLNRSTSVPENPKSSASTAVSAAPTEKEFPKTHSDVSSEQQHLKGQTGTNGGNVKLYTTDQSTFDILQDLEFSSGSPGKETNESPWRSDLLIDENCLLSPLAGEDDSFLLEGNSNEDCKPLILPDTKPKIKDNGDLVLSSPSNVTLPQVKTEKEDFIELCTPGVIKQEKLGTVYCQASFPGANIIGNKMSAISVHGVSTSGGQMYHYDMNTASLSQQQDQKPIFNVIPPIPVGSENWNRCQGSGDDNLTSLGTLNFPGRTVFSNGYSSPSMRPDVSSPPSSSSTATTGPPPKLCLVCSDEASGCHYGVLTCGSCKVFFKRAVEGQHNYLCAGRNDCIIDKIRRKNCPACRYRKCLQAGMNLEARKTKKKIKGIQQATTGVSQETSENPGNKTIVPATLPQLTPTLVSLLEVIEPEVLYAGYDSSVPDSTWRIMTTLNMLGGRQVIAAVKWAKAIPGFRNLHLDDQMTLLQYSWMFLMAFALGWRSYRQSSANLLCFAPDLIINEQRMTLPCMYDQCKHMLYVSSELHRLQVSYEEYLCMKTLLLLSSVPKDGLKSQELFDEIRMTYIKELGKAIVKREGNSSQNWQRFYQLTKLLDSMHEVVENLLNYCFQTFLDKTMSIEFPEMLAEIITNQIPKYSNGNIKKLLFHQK

[6] = biological target: Sodium-dependent dopamine transporter (Homo sapiens, UniProt Q01959)
Sequence of Sodium-dependent dopamine transporter (Q01959 whole entry): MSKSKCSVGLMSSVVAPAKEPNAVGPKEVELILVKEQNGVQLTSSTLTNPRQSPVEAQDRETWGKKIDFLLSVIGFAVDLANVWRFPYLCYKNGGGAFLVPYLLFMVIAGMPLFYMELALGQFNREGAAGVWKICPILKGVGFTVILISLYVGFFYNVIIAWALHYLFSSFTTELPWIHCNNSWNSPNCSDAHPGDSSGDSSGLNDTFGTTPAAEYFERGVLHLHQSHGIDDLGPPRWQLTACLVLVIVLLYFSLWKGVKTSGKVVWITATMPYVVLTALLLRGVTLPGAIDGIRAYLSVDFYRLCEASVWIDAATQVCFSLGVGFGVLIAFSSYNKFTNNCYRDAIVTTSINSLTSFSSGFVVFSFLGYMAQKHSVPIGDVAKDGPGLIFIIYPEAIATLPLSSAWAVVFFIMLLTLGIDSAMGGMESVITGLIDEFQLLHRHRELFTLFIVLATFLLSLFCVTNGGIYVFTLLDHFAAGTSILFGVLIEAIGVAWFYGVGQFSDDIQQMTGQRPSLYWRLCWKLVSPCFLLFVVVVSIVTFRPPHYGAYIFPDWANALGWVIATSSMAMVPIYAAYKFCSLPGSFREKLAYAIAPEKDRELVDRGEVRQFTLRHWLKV

Vasopressin V2 receptor = Vasopressin V2 receptor (Homo sapiens, UniProt P30518)
Sequence of Vasopressin V2 receptor (P30518 whole entry): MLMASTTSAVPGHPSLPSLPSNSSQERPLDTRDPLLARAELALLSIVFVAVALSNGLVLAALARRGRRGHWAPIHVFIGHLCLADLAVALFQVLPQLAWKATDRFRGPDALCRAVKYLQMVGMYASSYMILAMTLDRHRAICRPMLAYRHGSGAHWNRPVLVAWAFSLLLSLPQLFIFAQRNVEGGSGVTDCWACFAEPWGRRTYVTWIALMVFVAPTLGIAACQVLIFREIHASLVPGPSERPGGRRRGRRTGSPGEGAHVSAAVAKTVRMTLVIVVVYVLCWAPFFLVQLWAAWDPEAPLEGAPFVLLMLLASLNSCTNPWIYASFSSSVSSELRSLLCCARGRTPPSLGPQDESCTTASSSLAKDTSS

[7] = biological target: T5, Alpha-1A adrenergic receptor (Homo sapiens, UniProt P35348); format: functional, cell-based
T5 sequence (P35348 whole entry): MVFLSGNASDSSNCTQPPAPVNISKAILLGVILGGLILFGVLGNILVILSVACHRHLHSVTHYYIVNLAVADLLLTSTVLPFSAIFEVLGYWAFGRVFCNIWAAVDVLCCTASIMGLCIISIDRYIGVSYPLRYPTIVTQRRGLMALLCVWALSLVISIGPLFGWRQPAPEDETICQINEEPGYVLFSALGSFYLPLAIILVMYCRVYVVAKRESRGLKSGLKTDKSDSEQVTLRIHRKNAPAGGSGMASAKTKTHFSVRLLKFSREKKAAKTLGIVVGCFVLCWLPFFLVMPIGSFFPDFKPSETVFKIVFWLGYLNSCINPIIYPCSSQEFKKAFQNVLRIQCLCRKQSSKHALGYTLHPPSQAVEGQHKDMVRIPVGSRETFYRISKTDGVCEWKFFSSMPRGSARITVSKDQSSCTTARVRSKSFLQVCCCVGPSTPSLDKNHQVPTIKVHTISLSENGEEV
Further: assay procedure not described here.

| SMILES | AC50 [1] [µM] | AC50 [2] [µM] | AC50 [3] [µM] | AC50 (Melanocortin receptor 3) [µM] | AC50 [4] [µM] | AC50 (Histamine H2 receptor) [µM] | AC50 [5] [µM] | AC50 (Glucocorticoid receptor) [µM] | AC50 [6] [µM] | AC50 (Vasopressin V2 receptor) [µM] | AC50 [7] [µM] |
| --- | --- | --- | --- | --- | --- | --- | --- | --- | --- | --- | --- |
| COc1ccc(/C=C/C(=O)Nc2ccccc2C(=O)O)cc1OC | > 30 | > 30 | > 30 | > 30 | 24 | > 30 | > 30 | > 30 | > 30 | > 30 | – |
| NCCCC(O)(P(=O)(O)O)P(=O)(O)O [ALENDRONIC ACID] | > 30 | > 10 | – | > 30 | 1.09 | > 10 | > 30 | > 30 | – | > 30 | – |
| Nc1ccc(C(=O)O)c(O)c1 [AMINOSALICYLIC ACID] | > 30 | > 30 | > 30 | > 30 | > 30 | > 30 | > 30 | > 30 | > 30 | > 30 | > 30 |
| COc1cc(OC)c(C(=O)CCCN2CCCC2)c(OC)c1 [BUFLOMEDIL] | > 30 | 13 | > 30 | > 30 | > 30 | > 30 | > 30 | > 30 | > 30 | > 30 | > 30 |
| CS(=O)(=O)OCCCCOS(C)(=O)=O [BUSULFAN] | > 30 | > 30 | > 30 | > 30 | > 30 | > 30 | > 30 | – | > 30 | > 30 | > 30 |
| CCCCCCNC(=O)n1cc(F)c(=O)[nH]c1=O [CARMOFUR] | > 30 | > 30 | > 30 | > 30 | > 30 | > 30 | > 30 | > 30 | > 30 | > 30 | – |
| CC(C)(C)NCC(O)c1cc(Cl)c(N)c(Cl)c1 (configuration not stated) [CLENBUTEROL] | > 30 | > 30 | > 30 | > 30 | > 30 | > 30 | > 30 | – | 27.1 | > 30 | > 30 |
| COc1cccc2c1C(=O)c1c(O)c3c(c(O)c1C2=O)C[C@@](O)(C(C)=O)C[C@@H]3O[C@H]1C[C@H](N)[C@H](O)[C@H](C)O1 [DAUNORUBICIN] | > 30 | 17.5 | – | 29 | > 30 | > 30 | > 10 | 0.11 | 17.7 | > 10 | – |
| CC(=O)OCC(CCn1cnc2cnc(N)nc21)COC(C)=O [FAMCICLOVIR] | > 30 | > 10 | > 10 | > 30 | > 30 | > 10 | > 30 | > 30 | > 10 | > 30 | > 30 |
| Nc1ccn([C@@H]2O[C@H](CO)[C@@H](O)C2(F)F)c(=O)n1 [GEMCITABINE] | > 30 | > 10 | > 10 | > 30 | 11 | > 10 | > 30 | > 30 | > 30 | > 30 | > 30 |
| COC1=C(OC)C(=O)C(CCCCCCCCCCO)=C(C)C1=O [IDEBENONE] | > 30 | > 10 | > 10 | > 30 | 6.4 | > 10 | > 30 | > 30 | > 10 | 10.9 | > 30 |
| Nc1nc2c(c(=O)[nH]1)N(C=O)C(CNc1ccc(C(=O)N[C@@H](CCC(=O)O)C(=O)O)cc1)CN2 (some centres not stated) [LEUCOVORIN] | > 30 | > 30 | > 30 | > 30 | > 30 | > 30 | > 30 | > 30 | > 30 | > 30 | > 30 |
| CCn1cc(C(=O)O)c(=O)c2cc(F)c(N3CCN(C)CC3)cc21 [PEFLOXACIN] | > 30 | > 30 | > 30 | > 30 | > 30 | > 30 | > 30 | > 30 | > 30 | > 30 | – |
| C[n+]1ccccc1/C=N/O [PRALIDOXIME] | – | > 30 | > 30 | – | > 30 | > 30 | – | – | – | – | > 30 |
| CCCNC(C)C(=O)Nc1ccccc1C (configuration not stated) [PRILOCAINE] | > 30 | > 30 | > 30 | > 30 | > 30 | > 30 | > 30 | > 30 | > 30 | > 30 | > 30 |
| CC(C)CC(N(C)C)C1(c2ccc(Cl)cc2)CCC1 (configuration not stated) [SIBUTRAMINE] | > 30 | 3.8 | – | > 30 | > 30 | > 10 | > 30 | > 30 | 0.75 | > 30 | > 30 |
| CN1[C@@H]2CC[C@H]1C[C@@H](OC(=O)c1c[nH]c3ccccc13)C2 [TROPISETRON] | > 30 | 27 | > 30 | > 30 | > 30 | > 30 | > 30 | – | > 30 | > 30 | > 30 |
| COc1ccc(C(CN(C)C)C2(O)CCCCC2)cc1 (configuration not stated) [VENLAFAXINE] | > 30 | > 10 | – | > 30 | > 10 | > 30 | > 30 | – | – | > 30 | > 30 |
